From patent US4444778A, “Method and composition for treating atherosclerosis” (priority 1982, dated 1984)
“Also recorded” adds a separate entry of the source.

Experiments:
[1] = system: Smooth muscle cells (BASMC); assay: Smooth muscle cell number, 96 h incubation with serotonin, PDGF or serotonin receptor blocker (Example 2, Table II); assay type: cell-based, bovine; conditions: for effect on serotonin-induced increase in smooth muscle cell number / Cell Number/Plate: 96 h, 2.5% platelet-poor plasma; for effect on serotonin-induced increase in smooth muscle cell number: similar = as with cyproheptadine; for Cell Number/Plate: mean ± SEM, n = 6
Experimental: Smooth muscle cells are grown from explants of bovine aortic media as described by Coughlin, et al (Platelet-Dependent Stimulation of Prostacyclin Synthesis by Platelet Derived Growth Factor, Nature, 288, pp. 600-602, 1980). Cells are seeded at 10^5 cells per 35 mm tissue culture well in Dulbecco's Modified Eagle Medium containing 10% calf serum and allowed to grow for 24 hours. The serum-containing medium is then removed and the cells are allowed to become quiescent in Medium 199 for 24 hours. The quiescent cultures are then incubated for 72 hours in Medium 199, with or without the mitogen to be tested. After the 72-hour incubation period, the cells are harvested for cell-number determination by Coulter Counter.
Smooth muscle cells are seeded and made quiescent as described in Example 1. Cultures are then treated with serotonin, PDGF or cyproheptadine, a serotonin receptor blocker. The cultures are then incubated for 96 hours in Medium 199 containing 2.5% platelet-poor plasma and the treatment to be tested.

Smooth muscle cells = assay: 3H-thymidine incorporation into smooth muscle cells (Example 3, Table III); assay type: cell-based; conditions: for effect on 3H-thymidine incorporation / response to serotonin: cyproheptadine 10^-7 M, similar = as with cyproheptadine; for CPM/Well (3H-thymidine incorporation): about 36 h, mean ± SEM, n = 4; for % Increase (3H-thymidine incorporation): versus control
Experimental: In this experiment, stimulation of ^3 H-thymidine incorporation is used as an index of the ability of a compound to promote smooth muscle cell proliferation. Smooth muscle cells are seeded in 96 well Linbro racks (5 mm diameter/well) and allowed to grow for 72 hours. […] After approximately 36 hours, the cells are washed with saline, fixed with 10% TCA, washed with water, lysed with 1% SDS, and the lysate counted for ^3 H. This procedure allows the investigator to assess the amount of ^3 H-thymidine taken up by smooth muscle cells and incorporated into DNA.

[2] = system: aortic smooth muscle cell proliferation after vascular injury; assay: Specific activity of aortic smooth muscle cell DNA after balloon catheter vascular injury (Example 4, Table IV); assay type: in vivo, rat; parameters: Specific Activity for smooth muscle cell DNA, repeat test: concentration or dose not given beside the values; conditions: for inhibition of injury-induced smooth muscle cell proliferation: after experimental vascular injury, similar = as with methiothepin 10 mg/kg i.p.; for dose dependent Specific Activity, methiothepin: vehicle = 100; for Specific Activity for smooth muscle cell DNA, repeat test: untreated 100, vehicle 92, standard error (%) in own column
Experimental: Rat aortas are denuded of endothelium by passing a catheter with an inflated balloon at its tip down the length of the blood vessel. In animal models, this type of vascular injury has been shown by Goldberg, et al (Vascular Smooth Muscle Cell Kinetics: A New Assay For Studying Patterns of Cellular Proliferation In Vivo, Science, 205, 920-922, 1979), to stimulate formation of vascular lesions resembling those of human atherosclerosis 48 hours after injury. The rats are injected intravenously with ^3 H-thymidine, which is incorporated into the DNA of proliferating smooth muscle cells. After one hour, the specific activity of aortic smooth muscle cell DNA is determined and used as an index of smooth muscle cell proliferation in the injured vessel wall.

[3] = system: vascular lesions of the aorta after de-endothelialization; assay: Lesion area after aortic de-endothelialization (Example 5, Table V); assay type: in vivo, rat (male Sprague-Dawley); conditions: 25 mg/kg by gavage
From the text: The use of serotonin antagonists in preventing or impeding arteriosclerotic lesion is indicated in vivo essentially in accordance with the de-endothelialization procedure of Tiell, et al (Influence of the Pituitary on Arterial Intima Proliferation in the Rat, Circulation Research, Vol. 42, No. 5, […], May 1978). Male Sprague-Dawley rats weighing 300-360 grams are fed a constant formula rodent lab chow and water ad libitum for two weeks prior to the start of the test. For two days before de-endothelialization and for the following 14 days until sacrifice, the animals receive either a placebo or 1 to 200 milligrams per kilogram per day of test compound. On the day of de-endothelialization, the drug is administered intravenously at one-tenth the oral dosage. De-endothelialization is carried out in the aortas of the anesthetized animals by balloon catheterization. The animals are weighed daily from the time of dosing and their behavior is recorded 3 to 4 hours following administration of the test compound. Fourteen days after catheterization, whole body perfusion fixation is carried out at 37° C. with 3% buffered glutaraldehyde in 0.15 M sodium cacodylate at pH 7.4 under 90-100 millimeters hydrostatic pressure. The aorta is removed, cut into 10 equal segments, and following two additional hours in the buffered glutaraldehyde, is treated with 1% osmium tetroxide, dehydrated, infiltrated with Squer's resin and cured. The segments are stained with Stevenal's blue and basic fuchsin, and the lesion areas is determined with a zeiss standard microscope and Videoplan computerized image analyzer. Please see examples for results.
Male Sprague-Dawley rats weighing 300-360 grams are individually ear tagged, housed and allowed to acclimate for two weeks prior to the start of the test. A constant formula rodent lab chow from Ralston Purina and water are available to the animals ad libitum.
For two days prior to de-endothelialization and for 14 days after, pizotyline at a dose of 25 milligrams per kilogram and placebo are administered by gavage in physiological saline to nine drug animals and 19 control animals. All animals are dosed between 8:00 and 10:00 A.M. daily. […] The animals are weighed daily at the time of dosing and behavior for each animal is recorded three to four hours after dosing. […]
On the day of de-endothelialization, the animals are anesthetized by ether inhalation and catheterization is carried out by the following procedure. […] The catheter balloon tip is advanced cephaled to the aortic arch region as determined through external catheter demarcations and inflated to a pre-established maximum diameter with approximately 900 mm Hg air pressure. […]

[4] = system: Smooth muscle cells (explants of bovine aortic media); assay: Smooth muscle cell number, 72 h incubation with mitogen (Example 1, Table I); assay type: cell-based; conditions: for Cell Number/Plate: 72 h, mean ± SEM, n = 6; for smooth muscle proliferation in cell culture: with and without 2% human platelet-poor plasma
Experimental: After the 72-hour incubation period, the cells are harvested for cell-number determination by Coulter Counter.

[5] = system: Smooth muscle cells (explants of bovine aortic media); conditions: shown by others; cited from earlier work

## CN1CCC(=C2c3ccccc3C=Cc3ccccc32)CC1 [Cyproheptadine]
[1]
  effect on serotonin-induced increase in smooth muscle cell number: attenuated
Smooth muscle cells; PDGF 1 ng/ml
  effect on 3H-thymidine incorporation / response to serotonin: attenuates this response to serotonin

## CSc1ccc2c(c1)C(N1CCN(C)CC1)Cc1ccccc1S2 (centres unmarked) [Methiothepin]
[2]; b.i.d.
  inhibition of injury-induced smooth muscle cell proliferation: marked inhibition; also recorded: remarkably effective
[2]; methiothepin 0.3 mg/kg
  dose dependent Specific Activity, methiothepin: 51
[2]; methiothepin 1.0 mg/kg
  dose dependent Specific Activity, methiothepin: 24
[2]; methiothepin 3.0 mg/kg
  dose dependent Specific Activity, methiothepin: 23
[2]; methiothepin 10 mg/kg i.p., b.i.d., control 91.6 ± 13.7, mean ± standard error (N = 6)
  Specific Activity of aortic smooth muscle cell DNA: 18.1 ± 5.3 CPM/ugDNA
[2]; methiothepin 10.0 mg/kg
  dose dependent Specific Activity, methiothepin: 20
[2]
  Specific Activity for smooth muscle cell DNA, repeat test: 23 % of control

## CN1CCC(=C2c3ccccc3CCc3sccc32)CC1 [Pizotyline, 4-[1-methyl-4-piperidylidene]-9,10-dihydro-4H-benzo[4,5]cyclohepta[1,2-b]thiophene]
[2]; b.i.d.
  inhibition of injury-induced smooth muscle cell proliferation: remarkably effective
[3]; abdominal, 2 days before and 14 days after, normalized to 1,000 μm length, control 60,310.3
  Mean Lesion Area, Abdominal: 27,135.4 Square Microns
[3]; abdominal, compared to control
  reduction of lesion formation, abdominal segments: 55%
[3]; thoracic, 2 days before and 14 days after, normalized to 1,000 μm length, control 50,283.1
  Mean Lesion Area, Thoracic: 11,834.8 Square Microns
[3]; thoracic, compared to control lesion areas
  mean reduction of lesion formation, thoracic segments: 77%

## COC(=O)[C@H]1[C@H]2C[C@@H]3c4[nH]c5cc(OC)ccc5c4CCN3C[C@H]2C[C@@H](OC(=O)c2cc(OC)c(OC)c(OC)c2)[C@@H]1OC [Reserpine]
[2]
  Specific Activity for smooth muscle cell DNA, repeat test: 68 % of control

## NCCc1c[nH]c2ccc(O)cc12 [Serotonin]
[4]; No Plasma, serotonin 10^-5 M
  Cell Number/Plate: 8.34 ± 0.43 ×10^-5
[4]; Plasma (2% human platelet-poor plasma), serotonin 10^-5 M
  Cell Number/Plate: 12.19 ± 0.13 ×10^-5
[4]
  smooth muscle proliferation in cell culture: more smooth muscle cells are present; also recorded: potent promoter of smooth muscle proliferation
[1]
  effect on serotonin-induced increase in smooth muscle cell number: increases the number of smooth muscle cells
[1]; serotonin 10^-5 M
  Cell Number/Plate: 7.68 ± 0.12 ×10^-5
[1]; serotonin 10^-5 M, relative to 10% Fetal Calf Serum = 100
  % Maximum: 33%
Smooth muscle cells; PDGF 1 ng/ml
  effect on 3H-thymidine incorporation / response to serotonin: stimulates smooth muscle cell proliferation
Smooth muscle cells; serotonin 10^-6 M
  CPM/Well (3H-thymidine incorporation): 306.4 ± 3.1 CPM/Well (×10^-3)
  % Increase (3H-thymidine incorporation): 240%
Smooth muscle cells; serotonin 10^-7 M
  CPM/Well (3H-thymidine incorporation): 139.8 ± 11.9 CPM/Well (×10^-3)
  % Increase (3H-thymidine incorporation): 55%
[2]; b.i.d.
  inhibition of injury-induced smooth muscle cell proliferation: important in mediating smooth muscle cell proliferation after vascular injury

## PDGF
[4]; No Plasma, PDGF 8 ng/ml
  Cell Number/Plate: 9.65 ± 0.29 ×10^-5
[4]; Plasma (2% human platelet-poor plasma), PDGF 8 ng/ml
  Cell Number/Plate: 14.24 ± 0.04 ×10^-5
[4]
  smooth muscle proliferation in cell culture: active
[1]; PDGF 0.5 ng/ml, alone or with serotonin / cyproheptadine as in label
  Cell Number/Plate: 8.11 ± 0.23 ×10^-5
[1]; PDGF 0.5 ng/ml, alone or with serotonin / cyproheptadine as in label, relative to 10% Fetal Calf Serum
  % Maximum: 39%
[1]; PDGF 4.0 ng/ml, alone or with serotonin / cyproheptadine as in label
  Cell Number/Plate: 10.66 ± 0.16 ×10^-5
[1]; PDGF 4.0 ng/ml, alone or with serotonin / cyproheptadine as in label, relative to 10% Fetal Calf Serum
  % Maximum: 72%
Smooth muscle cells; PDGF 1 ng/ml
  CPM/Well (3H-thymidine incorporation): 454.7 ± 28.3 CPM/Well (×10^-3)
  % Increase (3H-thymidine incorporation): 405%
  effect on 3H-thymidine incorporation / response to serotonin: increase thymidine incorporation
[5]
  mitogen for smooth muscle cells: mitogen for smooth muscle cells
